Data set [1] in a line: Permeability from basolateral to apical side in human Caco2 cells. Format: ADME, cell-based. To be noted: Caco-2, read-out: permeability. (Caco-2 monolayers are a common model of the intestinal barrier.)
Data set [2] can be described thus: Permeability from apical to basolateral side in human Caco2 cells. The following applies: Caco-2, read-out: permeability. Format: ADME, cell-based.

With `CCN(CC)c1ccc(/C=C2\C(=O)N(c3ccccn3)N=C2C)cc1`, the Papp B→A in data set [1] was found to be 6 nm/s. Moreover, the Papp A→B in data set [2] is 3 nm/s.
Take `Cc1nn(-c2ccccn2)c(O)c1-c1ccccc1`: the Papp B→A in data set [1] worked out at 167 nm/s. For the same compound, the Papp A→B in data set [2] was determined as 82 nm/s.
For `Cc1nn(-c2nc3ccccc3s2)c(O)c1-c1ccccc1` the same measures were 66 nm/s and 67 nm/s.
For `Cc1nn(-c2nc3ccccc3[nH]2)c(O)c1-c1ccccc1` the same measures were 135 nm/s and 101 nm/s.
On to `Cc1ccc2nc(-n3nc4c(c3O)-c3ccccc3CC4)sc2c1`, for which, in data set [1], the Papp B→A was 34 nm/s. Further, the Papp A→B in data set [2] came to 52 nm/s.
`COc1ccc2nc(-n3nc4c(c3O)-c3ccccc3CC4)sc2c1`: the Papp B→A in data set [1] worked out at 167 nm/s. For the same compound, the Papp A→B in data set [2] worked out at 127 nm/s.
For `Oc1c2c(nn1-c1nc3ccc(F)cc3s1)CCc1ccccc1-2` the same measures were 11 nm/s and 43 nm/s.
In the same order, the values of `Oc1c2c(nn1-c1nc3ccccc3s1)CCc1ccccc1-2` are 240 nm/s and 208 nm/s.
In the same order, the values of `Oc1c2c(nn1-c1ccccn1)CCc1ccccc1-2` are 117 nm/s and 89 nm/s.
For `Oc1c2c(nn1-c1nc3ccccc3[nH]1)CCc1ccccc1-2`, the Papp B→A in data set [1] is 63 nm/s. The Papp A→B in data set [2] was found to be 51 nm/s.
As for `Oc1c2c(nn1-c1ccccn1)CCc1cc(-c3ccccc3)ccc1-2`, the Papp B→A in data set [1] worked out at 9 nm/s. Also, the Papp A→B in data set [2] was found to be 1 nm/s.
In the same order, the values of `Oc1c2c(nn1-c1ccccn1)CCc1cc(Br)ccc1-2` are 76 nm/s and 32 nm/s.
For `N#Cc1ccc2c(c1)CCc1nn(-c3ccccn3)c(O)c1-2`, in data set [1], the Papp B→A worked out at 131 nm/s. Moreover, the Papp A→B in data set [2] worked out at 23 nm/s.
For `Cc1[nH]n(-c2ccccn2)c(=O)c1C(=O)Nc1ccccc1` the same measures were 196 nm/s and 104 nm/s.
`Cc1[nH]n(-c2nccs2)c(=O)c1-c1ccccc1`: the Papp B→A in data set [1] stood at 238 nm/s. The Papp A→B in data set [2] came out at 239 nm/s.
In the same order, the values of `Cc1cccc(NC(=O)c2c(C)[nH]n(-c3ccccn3)c2=O)c1` are 156 nm/s and 99 nm/s.
`COc1cccc(NC(=O)c2c(C)[nH]n(-c3ccccn3)c2=O)c1`: in data set [1], the Papp B→A stood at 154 nm/s. Further, the Papp A→B in data set [2] was found to be 90 nm/s.
For `Cc1ccc(NC(=O)c2c(C)[nH]n(-c3ccccn3)c2=O)cc1` the same measures were 153 nm/s and 61 nm/s.
In the same order, the values of `Cc1[nH]n(-c2ccccn2)c(=O)c1C(=O)Nc1ccccc1[N+](=O)[O-]` are 155 nm/s and 112 nm/s.
In the same order, the values of `Cc1[nH]n(-c2ccccn2)c(=O)c1C(=O)Nc1ccccc1C(F)(F)F` are 142 nm/s and 78 nm/s.
For the compound `Cc1[nH]n(-c2ccccn2)c(=O)c1C(=O)Nc1ccc2c(c1)OCO2`, the Papp B→A in data set [1] stood at 208 nm/s. The Papp A→B in data set [2] was determined as 93 nm/s.
In the same order, the values of `COc1ccc(-c2c(C)[nH]n(-c3ccccn3)c2=O)cc1` are 163 nm/s and 127 nm/s.
For the compound `Cc1[nH]n(-c2ccccn2)c(=O)c1-c1ccc(C#N)cc1`, the Papp B→A in data set [1] is 278 nm/s. Also, the Papp A→B in data set [2] worked out at 214 nm/s.
For `Cc1[nH]n(-c2ccccn2)c(=O)c1-c1ccc([N+](=O)[O-])cc1` the same measures were 56 nm/s and 35 nm/s.
In the same order, the values of `Cc1[nH]n(-c2ccccn2)c(=O)c1-c1ccc(C(F)(F)F)cc1` are 79 nm/s and 31 nm/s.
For `Cc1[nH]n(-c2ccccn2)c(=O)c1-c1cccc(C(F)(F)F)c1` the same measures were 58 nm/s and 70 nm/s.
Turning to `Cc1[nH]n(-c2ccccn2)c(=O)c1-c1ccc(F)cc1`, in data set [1], the Papp B→A stood at 159 nm/s. The Papp A→B in data set [2] worked out at 112 nm/s.
For `Cc1[nH]n(-c2nc3ccc(F)cc3s2)c(=O)c1-c1ccccc1` the same measures were 201 nm/s and 168 nm/s.
With `Cc1[nH]n(-c2ccccn2)c(=O)c1C(=O)Nc1cccc(C(F)(F)F)c1`, the Papp B→A in data set [1] stood at 89 nm/s. Moreover, the Papp A→B in data set [2] is 45 nm/s.
For `Cc1[nH]n(-c2ccccn2)c(=O)c1C(=O)Nc1ccc([N+](=O)[O-])cc1` the same measures were 115 nm/s and 76 nm/s.
In the same order, the values of `COc1ccc(NC(=O)c2c(C)[nH]n(-c3ccccn3)c2=O)cc1F` are 132 nm/s and 66 nm/s.
For `Cc1[nH]n(-c2ccccn2)c(=O)c1C(=O)Nc1ccc(C(F)(F)F)cc1` the same measures were 39 nm/s and 6 nm/s.

The record behind these values is ChEMBL document CHEMBL1933041, “Synthesis and biological evaluation of substituted pyrazoles as blockers of divalent metal transporter 1 (DMT1)” (Bioorg Med Chem Lett, 2012).
